Test results from PubChem BioAssay (NCI).
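A five-concentration, 48-hour dose response in 96-well plates underlies each endpoint, interpolated linearly between surrounding concentrations. GI50 marks 50% less growth. Definition used: TGI = concentration required for complete inhibition of growth.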

Columns and labels:
Test in all cases: NCI-60 cell line screen, 48 h
[1] = tested on: OVCAR-8 ovarian
[2] = tested on: RXF 393 renal
[3] = tested on: U251 CNS
[4] = tested on: IGROV1 ovarian
[5] = tested on: NCI-H460 lung
[6] = tested on: TK-10 renal
[7] = tested on: RPMI-8226 leukemia
[8] = tested on: SN12C renal
[9] = tested on: BT-549 breast
[10] = tested on: SK-MEL-5 melanoma

SMILES	GI50 [1] [µM]	TGI [1] [µM]	GI50 [2] [µM]	TGI [2] [µM]	GI50 [3] [µM]	TGI [3] [µM]	GI50 [4] [µM]	TGI [4] [µM]	GI50 [5] [µM]	TGI [5] [µM]	GI50 [6] [µM]	TGI [6] [µM]	GI50 [7] [µM]	TGI [7] [µM]	GI50 [8] [µM]	TGI [8] [µM]	GI50 [9] [µM]	TGI [9] [µM]	GI50 [10] [µM]	TGI [10] [µM]
O=c1nc2oc3ccc4ccccc4c3cc-2s1	29.4	> 100	1.83	21.6	4.4	> 100	10.2	> 100	4.93	> 100	> 25.4	> 100	50.9	> 100	20.4	> 100	4.35	> 100	2.44	> 100
Cc1ccc(S(=O)(=O)Nc2cccc3[nH]c(C(F)(F)F)nc23)cc1	1.22	> 47.8	1.17	27.1	0.466	21.4	0.832	> 100	0.398	> 38.4	2.98	61.8	0.772	13.7	2.72	> 89.2	0.62	52	0.429	3.98
C1CN(SSN2CCOCC2)CCO1	52.1	> 100	21.8	41.4	33.6	> 100	70.7	> 100	28.3	> 100	> 100	> 100	27.4	> 100	26.6	77.8	30	> 100	41.1	> 100
CCOc1ccccc1N=Nc1c(C)[nH]n(-c2nc(-c3ccccc3)cs2)c1=O	29	> 100	16.4	38.4	36.2	> 100	25.8	> 85.3	37.5	> 100	43.4	> 94.2	> 100	> 100	> 94.8	> 100	29.2	> 100	41.6	> 100
CC[C@H](CO)Nc1nc(NCc2ccccc2)n2ncc(C(C)C)c2n1	2.15	54.8	0.25	0.792	1.4	10.5	0.782	> 100	1.05	10.9	2	10.9	2.23	6.93	2.41	14.4	1.56	5.29	1.78	4.96
CN(C)c1ccc2c(c1)OC(N)=C(C#N)C2c1ccc2c(c1)CCO2 (centres undefined)	0.39	39.9	0.255		0.198	29.8	0.326	> 100	< 0.0231	18.3	15.9	> 100	0.48	28.3	0.644	42.5	0.0385	12.4	< 0.0427	15.1
COc1c2c(nc3ccccc13)-c1cc3c(c(=O)n1C2)COC(=O)C3(O)CC(=O)N1CCOCC1 (centres undefined)		33.8		26.9		6.92		98.7		30.9		> 100		82		25.4		> 53.1		23
CCCOC(=O)N1CCN(/[N+]([O-])=N/Oc2ccc([N+](=O)[O-])cc2[N+](=O)[O-])CC1	9.35	72.8	8.67	23.8	2.03	3.96	1.3	4.05	2.54	8.82	3.87	14.9	0.49	2.41	2.58	6.94	3.46	11.7	2.35	7.53
CCN(CC)Cc1ccc(Nc2nccc(-c3cnn4ncccc34)n2)cc1	0.0133	> 25	0.0063	0.0147	0.014	> 25	0.0275	> 20.8	0.0169	2.99	0.0236	0.188	0.0749	1.76	0.0141	> 25	0.0377	0.139	0.0419	0.215
C=C(CO[Si](C)(C)C(C)(C)C)C(C)=O		37.5		29		> 100		> 69.7		> 100		> 100		> 77.8		> 68.5		44		28.4
O=C(/C=C/c1ccc([N+](=O)[O-])cc1)c1ccc2c3c(cccc13)CC2	22.2	> 100	4.47	21.3	2.65	> 29.6	4.36	53.2	4.23	> 64.8	31.4	> 75	1.64	4.84	> 34.6	> 100	23.6	> 90.4	33.2	> 100
